Assay results as given in ChEMBL document CHEMBL1144734, “Inhibitory effect of xanthones isolated from the pericarp of Garcinia mangostana L. on rat basophilic leukemia RBL-2H3 cell degranulation” (Bioorg Med Chem, 2008).
Calls of active or inactive are those of the source. No cut-off for these calls is given here.

How the values were obtained:
RBL-2H3 [1] = test: Inhibition of DNP-BSA stimulated histamine release in IgE-sensitized rat RBL2H3 cells after 30 mins; format: functional, cell-based
RBL-2H3 [2] = test: Inhibition of A23187-induced degranulation in rat RBL2H3 cells; format: functional, cell-based
RBL-2H3 [3] = test: Inhibition of DNP-BSA induced intracellular calcium elevation in IgE-sensitized rat RBL2H3 cells at 20 uM after 30 mins; format: functional, cell-based
RBL-2H3 [4] = test: Decrease in FcepsilonRI-induced intracellular ROS level in IgE-sensitized rat RBL2H3 cells assessed as DCF oxidation at 20 uM after 30 mins; format: functional, cell-based
[5] = target: Tyrosine-protein kinase Lyn (Rattus norvegicus) (UniProt Q07014); test: Inhibition of Lyn phosphorylation in IgE-sensitized rat RBL2H3 cells at 20 uM; format: cell-based; settings: RBL-2H3
[6] = target: Tyrosine-protein kinase SYK (Rattus norvegicus) (UniProt Q64725); test: Inhibition of Syk phosphorylation in IgE-sensitized rat RBL2H3 cells at 20 uM; format: cell-based; settings: RBL-2H3
RBL-2H3 [7] = test: Inhibition of p38 phosphorylation in IgE-sensitized rat RBL2H3 cells at 20 uM; format: cell-based
[8] = target: Mitogen-activated protein kinase 1 (ERK2), Rattus norvegicus (UniProt P63086); test: Inhibition of ERK2 phosphorylation in IgE-sensitized rat RBL2H3 cells at 20 uM; settings: RBL-2H3
[9] = target: Mitogen-activated protein kinase 9 (JNK2), Rattus norvegicus (UniProt P49186); test: Inhibition of JNK2 phosphorylation in IgE-sensitized rat RBL2H3 cells at 20 uM; settings: RBL-2H3
[10] = target: Mitogen-activated protein kinase 3 (ERK1), Rattus norvegicus (UniProt P21708); test: Inhibition of ERK1 phosphorylation in IgE-sensitized rat RBL2H3 cells at 20 uM; settings: RBL-2H3
[11] = target: Mitogen-activated protein kinase 8 (JNK1), Rattus norvegicus (UniProt P49185); test: Inhibition of JNK1 phosphorylation in IgE-sensitized rat RBL2H3 cells at 20 uM; settings: RBL-2H3
[12] = tested on: Radical scavenging activity; test: Antioxidant activity assessed as DPPH radical scavenging activity; format: functional
[13] = target: Mitogen-activated protein kinase 1 (ERK2), Rattus norvegicus (UniProt P63086); test: Inhibition of ERK2 phosphorylation in IgE-sensitized rat RBL2H3 cells […] at 100 uM after 30 mins; settings: RBL-2H3
[14] = target: Mitogen-activated protein kinase 3 (ERK1), Rattus norvegicus (UniProt P21708); test: Inhibition of ERK1 phosphorylation in IgE-sensitized rat RBL2H3 cells […] at 100 uM after 30 mins; settings: RBL-2H3
[15] = target: Tyrosine-protein kinase SYK (Rattus norvegicus) (UniProt Q64725); test: Inhibition of ERK1 phosphorylation in IgE-sensitized rat RBL2H3 cells […] at 50 uM after 30 mins; format: cell-based; settings: RBL-2H3
[16] = target: Tyrosine-protein kinase SYK (Rattus norvegicus) (UniProt Q64725); test: Inhibition of ERK2 phosphorylation in IgE-sensitized rat RBL2H3 cells […] at 50 uM after 30 mins; format: cell-based; settings: RBL-2H3
[17] = target: Mitogen-activated protein kinase 3 (ERK1), Rattus norvegicus (UniProt P21708); test: Inhibition of ERK1 phosphorylation in IgE-sensitized rat RBL2H3 cells […] at 2 uM after 30 mins; settings: RBL-2H3
[18] = target: Mitogen-activated protein kinase 1 (ERK2), Rattus norvegicus (UniProt P63086); test: Inhibition of ERK2 phosphorylation in IgE-sensitized rat RBL2H3 cells […] at 2 uM after 30 mins; settings: RBL-2H3
[19] = tested on: Phospholipase C-gamma-1, Rattus norvegicus; test: Inhibition of PLC-gamma1 phosphorylation in IgE-sensitized rat RBL2H3 cells at 20 uM; settings: RBL-2H3
[20] = tested on: Phospholipase C-gamma-2, Rattus norvegicus; test: Inhibition of PLC-gamma2 phosphorylation in IgE-sensitized rat RBL2H3 cells at 20 uM; settings: RBL-2H3

Mitogen-activated protein kinase 9 (JNK2), Rattus norvegicus, sequence (P49186 whole entry, looked up): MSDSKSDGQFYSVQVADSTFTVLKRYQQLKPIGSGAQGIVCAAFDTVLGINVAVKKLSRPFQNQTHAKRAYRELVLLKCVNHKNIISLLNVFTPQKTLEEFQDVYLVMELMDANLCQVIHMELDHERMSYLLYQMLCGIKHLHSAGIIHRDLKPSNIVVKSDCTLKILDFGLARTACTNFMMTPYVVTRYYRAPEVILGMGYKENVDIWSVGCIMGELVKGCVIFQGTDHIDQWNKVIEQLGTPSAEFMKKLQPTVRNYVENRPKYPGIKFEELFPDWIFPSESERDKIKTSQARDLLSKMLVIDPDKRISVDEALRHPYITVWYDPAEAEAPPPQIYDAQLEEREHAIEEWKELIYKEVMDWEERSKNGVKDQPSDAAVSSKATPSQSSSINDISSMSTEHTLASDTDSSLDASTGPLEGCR
Tyrosine-protein kinase SYK (Rattus norvegicus), sequence (Q64725 whole entry, looked up): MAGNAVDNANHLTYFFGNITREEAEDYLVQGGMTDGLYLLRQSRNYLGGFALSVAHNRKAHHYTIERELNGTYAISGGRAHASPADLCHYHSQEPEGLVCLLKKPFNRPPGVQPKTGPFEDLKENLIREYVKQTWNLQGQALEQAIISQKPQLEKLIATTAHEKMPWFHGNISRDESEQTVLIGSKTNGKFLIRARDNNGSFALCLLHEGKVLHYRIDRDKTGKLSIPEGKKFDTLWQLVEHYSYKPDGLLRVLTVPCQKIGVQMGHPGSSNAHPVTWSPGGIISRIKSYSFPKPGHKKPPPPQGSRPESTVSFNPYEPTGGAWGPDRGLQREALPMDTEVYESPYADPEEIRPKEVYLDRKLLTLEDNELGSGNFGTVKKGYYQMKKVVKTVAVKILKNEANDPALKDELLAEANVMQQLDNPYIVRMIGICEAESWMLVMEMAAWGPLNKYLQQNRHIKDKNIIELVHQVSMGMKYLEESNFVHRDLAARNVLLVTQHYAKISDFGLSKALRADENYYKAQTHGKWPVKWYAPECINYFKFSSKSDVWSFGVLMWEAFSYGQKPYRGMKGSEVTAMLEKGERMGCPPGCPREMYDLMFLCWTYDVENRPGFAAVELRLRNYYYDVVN
Mitogen-activated protein kinase 8 (JNK1), Rattus norvegicus, sequence (P49185 whole entry, looked up): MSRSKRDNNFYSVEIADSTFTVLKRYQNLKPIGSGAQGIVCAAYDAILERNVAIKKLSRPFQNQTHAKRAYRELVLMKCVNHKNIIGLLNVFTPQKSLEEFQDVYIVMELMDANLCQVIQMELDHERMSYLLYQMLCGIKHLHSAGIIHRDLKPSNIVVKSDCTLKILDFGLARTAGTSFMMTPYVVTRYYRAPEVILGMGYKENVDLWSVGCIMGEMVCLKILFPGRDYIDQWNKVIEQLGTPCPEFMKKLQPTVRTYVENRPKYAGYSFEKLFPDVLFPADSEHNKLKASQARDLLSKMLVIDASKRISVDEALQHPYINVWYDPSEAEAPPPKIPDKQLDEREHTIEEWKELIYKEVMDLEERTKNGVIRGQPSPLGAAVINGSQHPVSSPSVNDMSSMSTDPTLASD
Tyrosine-protein kinase Lyn (Rattus norvegicus), sequence (Q07014 whole entry): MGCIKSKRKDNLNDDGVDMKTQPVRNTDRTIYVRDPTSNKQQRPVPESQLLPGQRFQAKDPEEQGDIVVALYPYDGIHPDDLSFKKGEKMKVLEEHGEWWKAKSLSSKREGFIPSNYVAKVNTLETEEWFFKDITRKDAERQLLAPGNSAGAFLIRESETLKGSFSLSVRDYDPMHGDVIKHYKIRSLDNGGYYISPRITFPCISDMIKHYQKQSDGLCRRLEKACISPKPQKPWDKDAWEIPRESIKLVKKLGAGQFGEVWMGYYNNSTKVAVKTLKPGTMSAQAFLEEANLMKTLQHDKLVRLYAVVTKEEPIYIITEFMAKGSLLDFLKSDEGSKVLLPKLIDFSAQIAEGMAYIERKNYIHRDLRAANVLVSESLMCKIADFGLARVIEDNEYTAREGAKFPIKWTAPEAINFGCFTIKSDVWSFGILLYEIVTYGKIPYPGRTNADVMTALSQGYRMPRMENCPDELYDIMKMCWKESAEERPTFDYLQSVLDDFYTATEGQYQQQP
Mitogen-activated protein kinase 3 (ERK1), Rattus norvegicus, sequence (P21708 whole entry, looked up): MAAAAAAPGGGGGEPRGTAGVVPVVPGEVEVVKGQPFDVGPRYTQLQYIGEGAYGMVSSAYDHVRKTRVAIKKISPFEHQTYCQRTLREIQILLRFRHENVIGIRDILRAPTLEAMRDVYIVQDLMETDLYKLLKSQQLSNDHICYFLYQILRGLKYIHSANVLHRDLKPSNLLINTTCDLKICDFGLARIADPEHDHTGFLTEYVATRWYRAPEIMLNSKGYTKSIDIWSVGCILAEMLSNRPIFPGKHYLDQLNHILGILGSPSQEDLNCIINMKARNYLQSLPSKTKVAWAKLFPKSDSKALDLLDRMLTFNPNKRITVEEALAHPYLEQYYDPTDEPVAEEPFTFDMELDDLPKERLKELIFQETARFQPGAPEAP
Mitogen-activated protein kinase 1 (ERK2), Rattus norvegicus, sequence (P63086 whole entry, looked up): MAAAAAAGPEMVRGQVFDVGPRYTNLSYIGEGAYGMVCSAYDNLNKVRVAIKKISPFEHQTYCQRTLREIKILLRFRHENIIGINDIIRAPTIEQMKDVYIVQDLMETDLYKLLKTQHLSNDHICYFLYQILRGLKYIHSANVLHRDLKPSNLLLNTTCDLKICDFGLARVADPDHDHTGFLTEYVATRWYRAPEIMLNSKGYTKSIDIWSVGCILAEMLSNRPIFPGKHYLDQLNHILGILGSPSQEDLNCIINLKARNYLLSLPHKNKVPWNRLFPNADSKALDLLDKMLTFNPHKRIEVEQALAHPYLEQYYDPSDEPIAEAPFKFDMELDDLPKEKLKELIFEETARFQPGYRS

SMILES	Activity (RBL-2H3 [1])	Activity (RBL-2H3 [2])	Activity (RBL-2H3 [3])	Activity (RBL-2H3 [4])	Activity [5]	Activity [6]	Activity (RBL-2H3 [7])	Activity [8]	Activity [9]	Activity [10]	Activity [11]	also measured
COc1c(O)cc2oc3cc(O)c(CC=C(C)C)c(O)c3c(=O)c2c1CC=C(C)C	Dose-dependent effect	inactive	Active	inactive	inactive	Active	inactive	Active	inactive	Active	inactive	
CC(C)=CCc1c(O)cc2oc3cc(O)c(O)c(CC=C(C)C)c3c(=O)c2c1O	Dose-dependent effect	inactive	Active	Active	inactive	Active	inactive	Active	inactive	Active	inactive	Activity [12]: Active
CN(C)C[C@H]1CCn2c(c(C3=C(c4cn(C)c5ccccc45)C(=O)NC3=O)c3ccccc32)C1												Activity [13]: inactive; Activity [14]: inactive
COc1c(C[C@@H](C)OC(=O)Oc2ccc(O)cc2)c2c3c(C[C@@H](C)OC(=O)c4ccccc4)c(OC)c(=O)c4c(O)cc(OC)c(c5c(OC)cc(O)c(c1=O)c52)c43												Activity [15]: inactive; Activity [16]: inactive
COc1ccc2c(c1)c(C1=C(c3c[nH]c4ccccc34)C(=O)NC1=O)cn2CCCN(C)C												Activity [17]: inactive; Activity [13]: inactive
O=c1cc(N2CCOCC2)oc2c(-c3ccccc3)cccc12		Active										Activity [18]: inactive
COc1cc2oc3cc(O)c(OC)c(CC=C(C)C)c3c(=O)c2c(O)c1CC=C(C)C	Dose-dependent effect	inactive	Active	inactive	inactive	Active	inactive	Active	inactive	Active	inactive	Activity [19]: Active; Activity [20]: Active
CC(=O)c1c(O)c(C)c(O)c(Cc2c(O)c3c(c(C(=O)/C=C/c4ccccc4)c2O)OC(C)(C)C=C3)c1O												Activity [18]: inactive; Activity [14]: inactive
